# According to US8445690B2, “Aminothiazolones as estrogen related receptor-alpha modulators” (Janssen Pharmaceutica NV, priority 2010, dated 2013):
# pEC50: −log10 of the molar value.
# Target: T1, ERR1 (also known as ERR-α or ERR-1) (Homo sapiens, UniProt P11474)
# T1 sequence (P11474 193-421 limits assumed): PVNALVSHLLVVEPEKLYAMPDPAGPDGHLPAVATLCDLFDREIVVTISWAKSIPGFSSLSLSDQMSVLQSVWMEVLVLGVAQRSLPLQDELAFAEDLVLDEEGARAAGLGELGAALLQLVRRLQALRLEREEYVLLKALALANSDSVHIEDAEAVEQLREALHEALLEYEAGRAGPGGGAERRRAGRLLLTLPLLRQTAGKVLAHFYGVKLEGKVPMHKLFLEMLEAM
# Test: TR-FRET assay: disruption of co-activator peptide (GST-hSRC2) binding to 6His-tagged ERR1 LBD
# Type: biochemical
# Conditions: 6 nM ERR1LBD, 6 nM GST-SRC-2 peptide, 25° C., 4-18 hours; average of 3 independent experiments
# Procedure: Time-Resolved Fluorescence Resonance Energy Transfer (TR-FRET) experiments were performed to examine the functional response of ERR1 (also known as ERR-α or ERR-1) ligands. The TR-FRET assay described herein relied on the conformation of ERR1 for binding to a co-activator peptide: when a test compound binds to ERR1 and alters its conformation, it can disrupt the binding of the co-activator peptide. The components of this homogeneous secondary assay included: the ^6His-tagged-ERR1LBD, a GST-labeled-hSRC2 co-activator polypeptide and a fluorescent donor/acceptor pair from CIS bio international htrf/bioassays (Bedford, Mass.) using both an α-GST Europium Cryptate (Eu) label and an α^6His-XL665 (allophycocyanin) fluorophore.
# For TR-FRET measurements, the reaction was buffered in 25 mM Tris pH 8, 2.5 mM Hepes, 20 mM KCl, 1 mM DTT, and 0.05 mg/mL BSA (-lipids). The final concentrations of reagents were 6 nM of ERR1LBD, 6 nM GST-SRC-2 peptide, 30 nM Eu cryptate, and 7.5 nM XL665. Reactions were allowed to reach equilibrium at 25° C. for 4-18 hours before collecting data on the Analyst from LJL Biosystems (Molecular Devices Sunnyvale, Calif.). As a time-resolved method, the samples were excited at […] and emission was collected for 1 ms at both 615 and 665 nm with delays of 400 and 75 μs, respectively. Dose response curves were fitted using a hyperbolic equation and the data reported is the average of 3 independent experiments.
# Compounds listed in Tables II below were tested in the above assay, and they are all active modulators of ERR1.
row,pEC50,SMILES
1,7.11,"CN(C)CCCNC1=NC(=O)/C(=C/c2ccc3c(cnn3Cc3ccc(F)cc3C(F)(F)F)c2)S1 [Compound 1, 2-(3-Dimethylamino-propylamino)-5-[1-(4-fluoro-2-trifluoromethyl-benzyl)-1H-indazol-5-ylmethylene]-thiazol-4-one]"
2,7.92,"CN(C)CCCNC1=NC(=O)/C(=C/c2ccc3c(cnn3Cc3ccc(C(F)(F)F)cc3C(F)(F)F)c2)S1 [Compound 2, 5-[1-(2,4-Bis-trifluoromethyl-benzyl)-1H-indazol-5-ylmethylene]-2-(3-dimethylamino-propylamino)-thiazol-4-one]"
3,8.19,"CN(C)CCCNC1=NC(=O)/C(=C/c2ccc3c(cnn3Cc3ccc(Cl)cc3C(F)(F)F)c2)S1 [Compound 3, 5-[1-(4-Chloro-2-trifluoromethyl-benzyl)-1H-indazol-5-ylmethylene]-2-(3-dimethylamino-propylamino)-thiazol-4-one]"
4,7.64,"O=C(O)CNC1=NC(=O)/C(=C/c2ccc3c(cnn3Cc3ccc(Cl)cc3C(F)(F)F)c2)S1 [Compound 4, {5-[1-(4-Chloro-2-trifluoromethyl-benzyl)-1H-indazol-5-ylmethylene]-4-oxo-4,5-dihydro-thiazol-2-ylamino}-acetic acid]"
5,8.49,"COc1ccc(Cn2ncc3cc(/C=C4\SC(NCCN5CCOCC5)=NC4=O)ccc32)c(C(F)(F)F)c1 [Compound 5, 5-[1-(4-Methoxy-2-trifluoromethyl-benzyl)-1H-indazol-5-ylmethylene]-2-(2-morpholin-4-yl-ethylamino)-thiazol-4-one]"
6,8.35,"COc1ccc(Cn2ncc3cc(/C=C4\SC(NCCN5CCCC5)=NC4=O)ccc32)c(C(F)(F)F)c1 [Compound 6, 5-[1-(4-Methoxy-2-trifluoromethyl-benzyl)-1H-indazol-5-ylmethylene]-2-(2-pyrrolidin-1-yl-ethylamino)-thiazol-4-one]"
7,8.36,"COc1ccc(Cn2ncc3cc(/C=C4\SC(NCCCN5CCCC5=O)=NC4=O)ccc32)c(C(F)(F)F)c1 [Compound 7, 5-[1-(4-Methoxy-2-trifluoromethyl-benzyl)-1H-indazol-5-ylmethylene]-2-[3-(2-oxo-pyrrolidin-1-yl)-propylamino]-thiazol-4-one]"
8,7.14,"O=C1N=C(NCCOCCO)S/C1=C\c1ccc2c(cnn2Cc2ccc(Cl)cc2Cl)c1 [Compound 8, 5-[1-(2,4-Dichloro-benzyl)-1H-indazol-5-ylmethylene]-2-[2-(2-hydroxy-ethoxy)-ethylamino]-thiazol-4-one]"
9,8.05,"COc1ccc(Cn2ncc3cc(/C=C4\SC(NC[C@H](O)CO)=NC4=O)ccc32)c(C(F)(F)F)c1 [Compound 9, 2-(2S,3-Dihydroxy-propylamino)-5-[1-(4-methoxy-2-trifluoromethyl-benzyl)-1H-indazol-5-ylmethylene]-thiazol-4-one]"
10,8.31,"COc1ccc(Cn2ncc3cc(/C=C4\SC(NC[C@@H](O)CO)=NC4=O)ccc32)c(C(F)(F)F)c1 [Compound 10, 2-(2R,3-Dihydroxy-propylamino)-5-[1-(4-methoxy-2-trifluoromethyl-benzyl)-1H-indazol-5-ylmethylene]-thiazol-4-one]"
11,8.52,"COc1ccc(Cn2ncc3cc(/C=C4\SC(NCC(F)F)=NC4=O)ccc32)c(C(F)(F)F)c1 [Compound 11, 2-(2,2-Difluoro-ethylamino)-5-[1-(4-methoxy-2-trifluoromethyl-benzyl)-1H-indazol-5-ylmethylene]-thiazol-4-one]"
12,7.82,"O=C1N=C(NCCN2CCOCC2)S/C1=C\c1ccc2c(cnn2Cc2ccc(C(F)(F)F)cc2C(F)(F)F)c1 [Compound 12, 5-[1-(2,4-Bis-trifluoromethyl-benzyl)-1H-indazol-5-ylmethylene]-2-(2-morpholin-4-yl-ethylamino)-thiazol-4-one]"
13,8.28,"COc1ccc(Cn2ncc3cc(/C=C4\SC(NC5(C(=O)O)CC5)=NC4=O)ccc32)c(C(F)(F)F)c1 [Compound 13, 1-{5-[1-(4-Methoxy-2-trifluoromethyl-benzyl)-1H-indazol-5-ylmethylene]-4-oxo-4,5-dihydro-thiazol-2-ylamino}-cyclopropanecarboxylic acid]"
14,8.19,"O=C1N=C(NC2(C(=O)O)CC2)S/C1=C\c1ccc2c(cnn2Cc2ccc(C(F)(F)F)cc2C(F)(F)F)c1 [Compound 14, 1-{5-[1-(2,4-Bis-trifluoromethyl-benzyl)-1H-indazol-5-ylmethylene]-4-oxo-4,5-dihydro-thiazol-2-ylamino}-cyclopropanecarboxylic acid]"
15,8.41,"O=C1N=C(NCc2nn[nH]n2)S/C1=C\c1ccc2c(cnn2Cc2ccc(C(F)(F)F)cc2C(F)(F)F)c1 [Compound 15, 5-[1-(2,4-Bis-trifluoromethyl-benzyl)-1H-indazol-5-ylmethylene]-2-[(2H-tetrazol-5-ylmethyl)-amino]-thiazol-4-one]"
16,8.60,"O=C1CN(CCNC2=NC(=O)/C(=C/c3ccc4c(cnn4Cc4ccc(C(F)(F)F)cc4C(F)(F)F)c3)S2)CCN1 [Compound 16, 4-(2-{5-[1-(2,4-Bis-trifluoromethyl-benzyl)-1H-indazol-5-ylmethylene]-4-oxo-4,5-dihydro-thiazol-2-ylamino}-ethyl)-piperazin-2-one]"
17,8.12,"O=C1N=C(NCCn2cncn2)S/C1=C\c1ccc2c(cnn2Cc2ccc(C(F)(F)F)cc2C(F)(F)F)c1 [Compound 17, 5-[1-(2,4-Bis-trifluoromethyl-benzyl)-1H-indazol-5-ylmethylene]-2-(2-[1,2,4]triazol-1-yl-ethylamino)-thiazol-4-one]"
18,8.74,"COc1ccc(Cn2ncc3cc(/C=C4\SC(NCCn5cncn5)=NC4=O)ccc32)c(C(F)(F)F)c1 [Compound 18, 5-[1-(4-Methoxy-2-trifluoromethyl-benzyl)-1H-indazol-5-ylmethylene]-2-(2-[1,2,4]triazol-1-yl-ethylamino)-thiazol-4-one]"
19,7.96,"O=C1CN(CCNC2=NC(=O)/C(=C/c3ccc4c(cnn4Cc4ccc(Cl)cc4C(F)(F)F)c3)S2)CCN1 [Compound 19, 4-(2-{5-[1-(4-Chloro-2-trifluoromethyl-benzyl)-1H-indazol-5-ylmethylene]-4-oxo-4,5-dihydro-thiazol-2-ylamino}-ethyl)-piperazin-2-one]"
20,7.71,"O=C1N=C(Nc2cccnc2)S/C1=C\c1ccc2c(cnn2Cc2ccc(Cl)cc2C(F)(F)F)c1 [Compound 20, 5-[1-(4-Chloro-2-trifluoromethyl-benzyl)-1H-indazol-5-ylmethylene]-2-(pyridin-3-ylamino)-thiazol-4-one]"
21,8.34,"O=C1N=C(N[C@H]2CCNC2)S/C1=C\c1ccc2c(cnn2Cc2ccc(Cl)cc2C(F)(F)F)c1 [Compound 21, 5-[1-(4-Chloro-2-trifluoromethyl-benzyl)-1H-indazol-5-ylmethylene]-2-(pyrrolidin-3S-ylamino)-thiazol-4-one]"
22,7.85,"O=C1N=C(NC2CCN(CCO)CC2)S/C1=C\c1ccc2c(cnn2Cc2ccc(Cl)cc2C(F)(F)F)c1 [Compound 22, 5-[1-(4-Chloro-2-trifluoromethyl-benzyl)-1H-indazol-5-ylmethylene]-2-[1-(2-hydroxy-ethyl)-piperidin-4-ylamino]-thiazol-4-one]"
23,7.77,"O=C1N=C(NCc2cccnc2)S/C1=C\c1ccc2c(cnn2Cc2ccc(Cl)cc2C(F)(F)F)c1 [Compound 23, 5-[1-(4-Chloro-2-trifluoromethyl-benzyl)-1H-indazol-5-ylmethylene]-2-[(pyridin-3-ylmethyl)-amino]-thiazol-4-one]"
24,7.92,"O=C1N=C(NCCn2ccnc2)S/C1=C\c1ccc2c(cnn2Cc2ccc(Cl)cc2C(F)(F)F)c1 [Compound 24, 5-[1-(4-Chloro-2-trifluoromethyl-benzyl)-1H-indazol-5-ylmethylene]-2-(2-imidazol-1-yl-ethylamino)-thiazol-4-one]"
25,7.38,"CN1CCC(NC2=NC(=O)/C(=C/c3ccc4c(cnn4Cc4ccc(Cl)cc4C(F)(F)F)c3)S2)CC1 [Compound 25, 5-[1-(4-Chloro-2-trifluoromethyl-benzyl)-1H-indazol-5-ylmethylene]-2-(1-methyl-piperidin-4-ylamino)-thiazol-4-one]"

row,SMILES,pEC50
1,"O=C1N=C(N[C@H]2CN3CCC2CC3)S/C1=C\c1ccc2c(cnn2Cc2ccc(C(F)(F)F)cc2C(F)(F)F)c1 [Compound 26, 2-(1-Aza-bicyclo[2.2.2]oct-3(R)-ylamino)-5-[1-(2,4-bis-trifluoromethyl-benzyl)-1H-indazol-5-ylmethylene]-thiazol-4-one]",7.44
2,"O=C1N=C(N[C@@H]2CN3CCC2CC3)S/C1=C\c1ccc2c(cnn2Cc2ccc(Cl)cc2C(F)(F)F)c1 [Compound 27, 2-(1-Aza-bicyclo[2.2.2]oct-3(S)-ylamino)-5-[1-(4-chloro-2-trifluoromethyl-benzyl)-1H-indazol-5-ylmethylene]-thiazol-4-one]",7.96
